# Measurements reported in paper PMC4828684 (ACS Infectious Diseases, 2016).
# How the values were obtained:
# [1] = target: T1, S. cerevisiae Acs1 (acetyl CoA synthetase) (Saccharomyces cerevisiae, UniProt Q01574); test: Km determination in hydroxamic acid enzyme assay; type: biochemical
# T1 sequence (Q01574 1-713): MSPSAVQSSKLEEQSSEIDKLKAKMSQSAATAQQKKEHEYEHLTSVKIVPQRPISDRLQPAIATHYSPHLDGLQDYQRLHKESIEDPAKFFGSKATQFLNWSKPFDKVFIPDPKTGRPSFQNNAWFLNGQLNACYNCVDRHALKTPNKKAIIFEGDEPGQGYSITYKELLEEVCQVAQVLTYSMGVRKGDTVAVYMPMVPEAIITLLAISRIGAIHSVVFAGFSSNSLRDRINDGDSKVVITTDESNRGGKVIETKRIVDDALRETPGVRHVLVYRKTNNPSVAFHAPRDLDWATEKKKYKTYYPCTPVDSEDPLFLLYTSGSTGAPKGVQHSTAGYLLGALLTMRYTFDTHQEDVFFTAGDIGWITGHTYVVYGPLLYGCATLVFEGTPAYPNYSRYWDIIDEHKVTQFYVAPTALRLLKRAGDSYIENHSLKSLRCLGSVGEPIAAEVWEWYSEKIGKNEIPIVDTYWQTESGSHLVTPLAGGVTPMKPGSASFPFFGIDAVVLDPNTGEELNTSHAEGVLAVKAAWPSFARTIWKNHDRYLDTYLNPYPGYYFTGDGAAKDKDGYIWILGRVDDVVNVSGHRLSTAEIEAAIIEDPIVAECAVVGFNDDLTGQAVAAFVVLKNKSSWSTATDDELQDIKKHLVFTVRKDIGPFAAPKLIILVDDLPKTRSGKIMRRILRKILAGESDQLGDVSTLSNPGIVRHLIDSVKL
# [2] = target: T2, human ACCS2 (ACSS2, acetyl CoA synthetase) (Homo sapiens, UniProt Q9NR19)
# T2 sequence (Q9NR19 whole entry): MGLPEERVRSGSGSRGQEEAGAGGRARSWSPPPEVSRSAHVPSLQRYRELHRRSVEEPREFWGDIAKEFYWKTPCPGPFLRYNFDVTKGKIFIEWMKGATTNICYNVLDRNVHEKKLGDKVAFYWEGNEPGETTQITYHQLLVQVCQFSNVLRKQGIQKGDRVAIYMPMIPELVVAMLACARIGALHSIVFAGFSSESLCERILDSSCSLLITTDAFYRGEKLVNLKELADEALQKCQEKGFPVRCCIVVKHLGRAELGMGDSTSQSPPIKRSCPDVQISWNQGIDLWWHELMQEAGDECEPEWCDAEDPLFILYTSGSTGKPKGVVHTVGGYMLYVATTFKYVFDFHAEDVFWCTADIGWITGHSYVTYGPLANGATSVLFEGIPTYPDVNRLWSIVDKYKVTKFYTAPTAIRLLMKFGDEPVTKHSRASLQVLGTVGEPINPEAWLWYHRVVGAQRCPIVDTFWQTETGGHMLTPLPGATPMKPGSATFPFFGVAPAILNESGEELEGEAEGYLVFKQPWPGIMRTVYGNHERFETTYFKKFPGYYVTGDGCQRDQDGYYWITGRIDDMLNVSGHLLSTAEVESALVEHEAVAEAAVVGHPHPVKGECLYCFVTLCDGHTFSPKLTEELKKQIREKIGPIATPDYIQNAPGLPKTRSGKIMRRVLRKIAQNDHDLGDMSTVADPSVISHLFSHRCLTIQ
# [3] = target: T1, S. cerevisiae Acs1 (acetyl CoA synthetase); test: hydroxylamine-coupled; type: biochemical
# [4] = target: T2, human ACCS2 (ACSS2, acetyl CoA synthetase); test: biochemical
Structure (SMILES),Km [1],Km [2],Ki [3],IC50 [4]
Nc1ncnc2c1ncn2[C@@H]1O[C@H](COP(=O)(O)OP(=O)(O)OP(=O)(O)O)[C@@H](O)[C@H]1O [ATP],900 to 1000 µM,900 to 1000 µM,–,–
NCC(=O)Nc1ccc(-n2nc(C(F)(F)F)cc2-c2ccc3c(ccc4ccccc43)c2)cc1 [AR-12],–,–,~2700 nM,< 100000 nM
